This is an account of results in ChEMBL document CHEMBL6092180 (Eur J Med Chem, 2024).

Holding throughout (assay type): functional
The test system of experiment [1] is Candida albicans. As to the kind of experiment: Antifungal activity against fluconazole-resistant Candida albicans clinical isolate 904 assessed as inhibition of fungal growth by CLSI M27-A3 guidelines based method.
For experiment [2], the system named is Pichia kudriavzevii. The experiment is described as follows: Antifungal activity against Candida krusei GIM 2.1 assessed as inhibition of fungal growth by CLSI M27-A3 guidelines based method.
The subject of experiment [3] is Candida albicans. The experiment is described as follows: Antifungal activity against fluconazole-resistant Candida albicans clinical isolate 311 assessed as inhibition of fungal growth by CLSI M27-A3 guidelines based method.
Experiment [4] deals with Candida albicans. As to the kind of experiment: Antifungal activity against fluconazole-resistant Candida albicans clinical isolate 632 assessed as inhibition of fungal growth by CLSI M27-A3 guidelines based method.
Experiment [5] concerns Candida albicans. The experiment is described as follows: Antifungal activity against fluconazole-resistant Candida albicans clinical isolate 901 assessed as inhibition of fungal growth by CLSI M27-A3 guidelines based method.
Experiment [6] deals with Aspergillus fumigatus. As to the kind of experiment: Antifungal activity against Aspergillus fumigatus cgmcc 3.7795 assessed as inhibition of fungal growth by CLSI M27-A3 guidelines based method.
Experiment [7] relates to Candida albicans. As to the kind of experiment: Antifungal activity against fluconazole-resistant Candida albicans CaR assessed as inhibition of fungal growth by CLSI M27-A3 guidelines based method.
The test system of experiment [8] is Candida albicans. The experiment is described as follows: Antifungal activity against Candida albicans GIM 2.194 assessed as inhibition of fungal growth by CLSI M27-A3 guidelines based method.
Experiment [9] concerns Candida tropicalis. As to the kind of experiment: Antifungal activity against Candida tropicalis GIM 2.183 assessed as inhibition of fungal growth by CLSI M27-A3 guidelines based method.
Experiment [10] deals with Candida albicans. The experiment is described as follows: Antifungal activity against Candida albicans SC5314 assessed as inhibition of fungal growth by CLSI M27-A3 guidelines based method.
The subject of experiment [11] is Candida albicans. As to the kind of experiment: Antifungal activity against fluconazole-resistant Candida albicans clinical isolate 100 assessed as inhibition of fungal growth by CLSI M27-A3 guidelines based method.
Experiment [12] has as its system Candida albicans. As to the kind of experiment: Antifungal activity against fluconazole-resistant Candida albicans clinical isolate 103 assessed as inhibition of fungal growth by CLSI M27-A3 guidelines based method.
Experiment [13] concerns Candida albicans. As to the kind of experiment: Antifungal activity against fluconazole and iodiconazole resistant Candida albicans clinical isolate 17# assessed as inhibition of fungal growth by CLSI M27-A3 guidelines based method.
In experiment [14] the test system is Nakaseomyces glabratus. As to the kind of experiment: Antifungal activity against Candida glabrata assessed as inhibition of fungal growth by CLSI M27-A3 guidelines based method.
The subject of experiment [15] is Cryptococcus neoformans. As to the kind of experiment: Antifungal activity against Cryptococcus neoformans CGMCC 2.3161 assessed as inhibition of fungal growth by CLSI M27-A3 guidelines based method.
Experiment [16] relates to Candida parapsilosis. As to the kind of experiment: Antifungal activity against Candida parapsilosis GIM 2.190 assessed as inhibition of fungal growth by CLSI M27-A3 guidelines based method. The note with it: Lodderomyces parapsilosis.

SMILES strings stand for the structures. Values after ≈ are worked out from the molar mass of the structure shown.

With `C[C@@H](N(C)Cc1ccc(C#Cc2ccc([N+](=O)[O-])cc2)cc1)[C@](O)(Cn1cncn1)c1ccc(F)cc1F`, the MIC80 in [1] came to 32 µg/mL (≈ 61.8 µM); in experiment [2] it was 0.01 µg/mL (≈ 0.0193 µM); in experiment [3], 16 µg/mL (≈ 30.9 µM); in [4], 4 µg/mL (≈ 7.73 µM); in experiment [5], 8 µg/mL (≈ 15.5 µM); in experiment [6], 0.05 µg/mL (≈ 0.0966 µM). Moreover, the MIC80 in experiment [7] was determined as 0.25 µg/mL (≈ 0.483 µM); in [8], 0.006 µg/mL (≈ 0.0116 µM); in experiment [9], 0.006 µg/mL (≈ 0.0116 µM); in [10], 0.013 µg/mL (≈ 0.0251 µM); in [11] it was 16 µg/mL (≈ 30.9 µM); in [12], 8 µg/mL (≈ 15.5 µM). For the same compound, the MIC80 in experiment [13] came out at 0.5 µg/mL (≈ 0.966 µM); in experiment [14], 0.01 µg/mL (≈ 0.0193 µM); in experiment [15], 0.013 µg/mL (≈ 0.0251 µM); in experiment [16] it was 0.006 µg/mL (≈ 0.0116 µM).

Regarding `C[C@@H](N(C)Cc1ccc(C#Cc2ccc(F)cc2)cc1)[C@](O)(Cn1cncn1)c1ccc(F)cc1F`, the MIC80 in experiment [1] was 16 µg/mL (≈ 32.6 µM); in experiment [2], 0.03 µg/mL (≈ 0.0612 µM); in [3], 16 µg/mL (≈ 32.6 µM); in experiment [4] it was 4 µg/mL (≈ 8.15 µM); in experiment [5], 4 µg/mL (≈ 8.15 µM); in [6] it was 0.1 µg/mL (≈ 0.204 µM). Also, the MIC80 was 0.25 µg/mL (≈ 0.51 µM) in experiment [7]; 0.025 µg/mL (≈ 0.051 µM) in experiment [8]; 0.006 µg/mL (≈ 0.0122 µM) in [9]; 0.025 µg/mL (≈ 0.051 µM) in experiment [10]; 4 µg/mL (≈ 8.15 µM) in [11]; 8 µg/mL (≈ 16.3 µM) in experiment [12]. The MIC80 was 0.25 µg/mL (≈ 0.51 µM) in [13], 0.01 µg/mL (≈ 0.0204 µM) in [14], 0.013 µg/mL (≈ 0.0265 µM) in [15] and 0.006 µg/mL (≈ 0.0122 µM) in experiment [16].

In the case of `C[C@@H](N(C)Cc1ccc(C#Cc2ccc(C#N)cc2)cc1)[C@](O)(Cn1cncn1)c1ccc(F)cc1F`, the MIC80 in [1] worked out at 32 µg/mL (≈ 64.3 µM); in experiment [2], 0.01 µg/mL (≈ 0.0201 µM); in experiment [3] it was 32 µg/mL (≈ 64.3 µM); in experiment [4] it was 8 µg/mL (≈ 16.1 µM); in experiment [5] it was 8 µg/mL (≈ 16.1 µM); in experiment [6] it was 0.05 µg/mL (≈ 0.1 µM). In addition, the MIC80 in experiment [7] stood at 0.5 µg/mL (≈ 1 µM); in experiment [8], 0.006 µg/mL (≈ 0.0121 µM); in [9] it was 0.006 µg/mL (≈ 0.0121 µM); in experiment [10], 0.006 µg/mL (≈ 0.0121 µM); in experiment [11] it was 16 µg/mL (≈ 32.2 µM); in [12], 8 µg/mL (≈ 16.1 µM). For the same compound, the MIC80 was found to be 0.25 µg/mL (≈ 0.502 µM) in [13], 0.01 µg/mL (≈ 0.0201 µM) in experiment [14], 0.006 µg/mL (≈ 0.0121 µM) in experiment [15] and 0.006 µg/mL (≈ 0.0121 µM) in experiment [16].

Take `C[C@@H](N(C)Cc1ccc(C#Cc2cc(F)c(F)cc2F)cc1)[C@](O)(Cn1cncn1)c1ccc(F)cc1F`: the MIC80 in [1] was found to be 32 µg/mL (≈ 60.8 µM); in experiment [2] it was 0.05 µg/mL (≈ 0.095 µM); in experiment [3], 16 µg/mL (≈ 30.4 µM); in [4], 4 µg/mL (≈ 7.6 µM); in experiment [5] it was 8 µg/mL (≈ 15.2 µM); in experiment [6] it was 0.2 µg/mL (≈ 0.38 µM). Also, the MIC80 in experiment [7] is 1 µg/mL (≈ 1.9 µM); in experiment [8] it was 0.025 µg/mL (≈ 0.0475 µM); in [9], 0.006 µg/mL (≈ 0.0114 µM); in [10], 0.013 µg/mL (≈ 0.0247 µM); in experiment [11] it was 8 µg/mL (≈ 15.2 µM); in [12], 8 µg/mL (≈ 15.2 µM). Besides, the MIC80 in [13] came out at 2 µg/mL (≈ 3.8 µM); in experiment [14] it was 0.05 µg/mL (≈ 0.095 µM); in experiment [15], 0.025 µg/mL (≈ 0.0475 µM); in experiment [16], 0.006 µg/mL (≈ 0.0114 µM).

As to `C[C@@H](N(C)Cc1ccc(C#Cc2ccc(F)c(F)c2)cc1)[C@](O)(Cn1cncn1)c1ccc(F)cc1F`, the MIC80 in experiment [1] is 16 µg/mL (≈ 31.5 µM); in experiment [2], 0.03 µg/mL (≈ 0.059 µM); in experiment [3], 8 µg/mL (≈ 15.7 µM); in [4], 4 µg/mL (≈ 7.87 µM); in [5], 8 µg/mL (≈ 15.7 µM); in experiment [6], 0.1 µg/mL (≈ 0.197 µM). The MIC80 in [7] came to 0.25 µg/mL (≈ 0.492 µM); in experiment [8], 0.025 µg/mL (≈ 0.0492 µM); in experiment [9], 0.006 µg/mL (≈ 0.0118 µM); in [10], 0.013 µg/mL (≈ 0.0256 µM); in experiment [11], 8 µg/mL (≈ 15.7 µM); in [12], 8 µg/mL (≈ 15.7 µM). The MIC80 in experiment [13] was determined as 0.5 µg/mL (≈ 0.983 µM); in experiment [14] it was 0.05 µg/mL (≈ 0.0983 µM); in experiment [15], 0.05 µg/mL (≈ 0.0983 µM); in experiment [16], 0.006 µg/mL (≈ 0.0118 µM).

On to `CC(=O)c1ccc(C#Cc2ccc(CN(C)[C@H](C)[C@](O)(Cn3cncn3)c3ccc(F)cc3F)cc2)cc1`, for which the MIC80 in experiment [1] worked out at 16 µg/mL (≈ 31.1 µM); in [2], 0.01 µg/mL (≈ 0.0194 µM); in experiment [3], 16 µg/mL (≈ 31.1 µM); in experiment [4], 4 µg/mL (≈ 7.77 µM); in [5] it was 8 µg/mL (≈ 15.5 µM); in [6] it was 0.1 µg/mL (≈ 0.194 µM). The MIC80 in experiment [7] was 0.25 µg/mL (≈ 0.486 µM); in [8], 0.013 µg/mL (≈ 0.0253 µM); in experiment [9], 0.006 µg/mL (≈ 0.0117 µM); in experiment [10] it was 0.013 µg/mL (≈ 0.0253 µM); in experiment [11] it was 16 µg/mL (≈ 31.1 µM); in experiment [12] it was 16 µg/mL (≈ 31.1 µM). The MIC80 turned out to be 0.5 µg/mL (≈ 0.972 µM) in experiment [13], 0.01 µg/mL (≈ 0.0194 µM) in experiment [14], 0.013 µg/mL (≈ 0.0253 µM) in experiment [15] and 0.006 µg/mL (≈ 0.0117 µM) in [16].
